Read-outs that look alike come from different tables or passages of the source.
Legend:
[1] = system: P. falciparum 3D7 parasites; experiment: P. falciparum growth inhibition assay, 1-cycle (72 h treatment), SYBR DNA staining (library screen at 2 μg/mL and dose-response); type: cell-based, Plasmodium falciparum; conditions: for activity at 2 µg/mL: Plasmodium falciparum
[2] = system: P. falciparum 3D7 parasites; experiment: P. falciparum growth inhibition assay, 2-cycle (120 h treatment), delayed-death screen and dose-response; type: cell-based, Plasmodium falciparum; conditions: for activity at 2 µg/mL: Plasmodium falciparum, 3D7, 120 h
[3] = system: T. gondii RH strain (RH-Tub-eYFP) tachyzoites; experiment: microbe, parasite or virus in culture; type: cell-based, Toxoplasma gondii; conditions: 72 h; for percent parasite growth at 2 µg/mL: Toxoplasma gondii
[4] = library screen at 2 μg/mL, 72 h, % growth, replicate 1
[5] = library screen at 2 μg/mL, 72 h, % growth, replicate 2
[6] = library screen at 2 μg/mL, 120 h, % growth, replicate 1
[7] = library screen at 2 μg/mL, 120 h, % growth, replicate 2
[8] = library screen at 2 μg/mL, % growth, replicate 1
[9] = library screen at 2 μg/mL, % growth, replicate 2
[10] = P. falciparum, 72 h, parasite screen 2 μg/mL, % growth, replicate 1
[11] = P. falciparum, 72 h, parasite screen 2 μg/mL, % growth, replicate 2
[12] = P. falciparum, 120 h, parasite screen 2 μg/mL, % growth, replicate 1
[13] = P. falciparum, 120 h, parasite screen 2 μg/mL, % growth, replicate 2
[14] = T. gondii, parasite screen 2 μg/mL, % growth, replicate 1
[15] = T. gondii, parasite screen 2 μg/mL, % growth, replicate 2

CC[C@H]1OC(=O)[C@H](C)[C@@H](O[C@H]2C[C@@](C)(OC)[C@@H](O)[C@H](C)O2)[C@H](C)[C@@H](O[C@@H]2O[C@H](C)C[C@H](N(C)C)[C@H]2O)[C@](C)(O)C[C@@H](C)C(=O)[C@H](C)[C@@H](O)[C@]1(C)O [Erythromycin A]
Pf_72h_%Growth_Rep1 [1, 4]: 79.99% | Pf_72h_%Growth_Rep2 [1, 5]: 105.49% | Pf_120h_%Growth_Rep1 [2, 6]: 83.81% | Pf_120h_%Growth_Rep2 [2, 7]: 89.66% | Tg_72h_%Growth_Rep1 [3, 8]: 29.44% | Tg_72h_%Growth_Rep2 [3, 9]: 44.08%

CC[C@H](C)C(=O)O[C@H]1C[C@H](O)C=C2C=C[C@H](C)[C@H](CC[C@@H](O)C[C@@H](O)CC(=O)O)[C@H]21 [Pravastatin sodium]
activity at 2 µg/mL ([1]; 3D7, 72 h, P. falciparum, 72 h, parasite screen 2 μg/mL, % growth, replicate 1, read-out: Pf_72h_%Growth_Rep1): 83.8% | activity at 2 µg/mL ([1]; 3D7, 72 h, P. falciparum, 72 h, parasite screen 2 μg/mL, % growth, replicate 2, read-out: Pf_72h_%Growth_Rep2): 99.3% | activity at 2 µg/mL ([2]; P. falciparum, 120 h, parasite screen 2 μg/mL, % growth, replicate 1, read-out: Pf_120h_%Growth_Rep1): 96.8% | activity at 2 µg/mL ([2]; P. falciparum, 120 h, parasite screen 2 μg/mL, % growth, replicate 2, read-out: Pf_120h_%Growth_Rep2): 111% | percent parasite growth at 2 µg/mL ([3]; T. gondii, parasite screen 2 μg/mL, % growth, replicate 1, read-out: Tg_72h_%Growth_Rep1): 92.2% | percent parasite growth at 2 µg/mL ([3]; T. gondii, parasite screen 2 μg/mL, % growth, replicate 2, read-out: Tg_72h_%Growth_Rep2): 94.6%

CC(=O)O[C@@H]1C[C@]2(C)[C@@]3(CO)[C@H](O)C(=O)C(C)=C[C@H]3O[C@H]1[C@@]21CO1 [Acetyldeoxynivalenol, 3-]
Pf_72h_%Growth_Rep1 [1, 4]: 11.16% | Pf_72h_%Growth_Rep2 [1, 5]: 9.81% | Pf_120h_%Growth_Rep1 [2, 6]: 14.50% | Pf_120h_%Growth_Rep2 [2, 7]: 5.88% | Tg_72h_%Growth_Rep1 [3, 8]: 4.23% | Tg_72h_%Growth_Rep2 [3, 9]: 6.65%

C=C1C(=O)C[C@@H]2[C@H]3CC[C@@H](C(=O)O)[C@@]12CC3(C)C [Terrecyclic Acid]
Pf_72h_%Growth_Rep1 ([1]; P. falciparum, 72 h, screen at 2 μg/mL, replicate 1): 17.94% | Pf_72h_%Growth_Rep2 ([1]; P. falciparum, 72 h, screen at 2 μg/mL, replicate 2): 13.49% | Pf_120h_%Growth_Rep1 ([2]; P. falciparum, 120 h, screen at 2 μg/mL, replicate 1): 35.11% | Pf_120h_%Growth_Rep2 ([2]; P. falciparum, 120 h, screen at 2 μg/mL, replicate 2): 10.18% | Tg_72h_%Growth_Rep1 ([3]; T. gondii, screen at 2 μg/mL, replicate 1): 40.31% | Tg_72h_%Growth_Rep2 ([3]; T. gondii, screen at 2 μg/mL, replicate 2): 50.53%

CC[C@@H](O)[C@@](C)(O)[C@@H]1OC(=O)[C@H](C)[C@@H](O[C@H]2C[C@@](C)(OC)[C@@H](O)[C@H](C)O2)[C@H](C)[C@@H](O[C@@H]2O[C@H](C)C[C@H](N(C)C)[C@H]2O)[C@@]2(C)CC(C)=C(O2)[C@@H]1C [Pseudoerythromycin A enol ether]
Pf_72h_%Growth_Rep1 [1, 10]: 72.76% | Pf_72h_%Growth_Rep2 [1, 11]: 82.73% | Pf_120h_%Growth_Rep1 [2, 12]: 72.95% | Pf_120h_%Growth_Rep2 [2, 13]: 110.79% | Tg_72h_%Growth_Rep1 [3, 14]: 127.77% | Tg_72h_%Growth_Rep2 [3, 15]: 87.62%

CC[C@H]1CCC[C@H](O)[C@@H](C)C(=O)C2=C[C@@H]3[C@@H](C=C(C)[C@@H]4C[C@@H](O)C[C@@H]34)[C@@H]2CC(=O)O1 [Spinosyn D aglycone]
IC50 ([1]; 3D7, 72 h treatment, mean ± S.D., n ≥ 3, read-out: IC50 (μM), P. falciparum): > 1 µM | Pf_72h_%Growth_Rep1 [1, 10]: 82.67% | Pf_72h_%Growth_Rep2 [1, 11]: 106.85% | Screen (P. falciparum) ([1]; library screen at 2 μg/mL, 3D7, 72 h, DD from the 120 h timepoint): I | Pf_120h_%Growth_Rep1 [2, 12]: 82.24% | Pf_120h_%Growth_Rep2 [2, 13]: 90.76% | Tg_72h_%Growth_Rep1 [3, 14]: 115.34% | Tg_72h_%Growth_Rep2 [3, 15]: 86.84%

CC(=O)c1c(O)cc(O)cc1O [BIA-M1378]
Pf_72h_%Growth_Rep1 ([1]; P. falciparum 3D7, 72 h, parasite screen at 2 μg/mL, % growth, replicate 1): 82.52% | Pf_72h_%Growth_Rep2 ([1]; P. falciparum 3D7, 72 h, parasite screen at 2 μg/mL, % growth, replicate 2): 84.34% | Pf_120h_%Growth_Rep1 ([2]; P. falciparum 3D7, 120 h, parasite screen at 2 μg/mL, % growth, replicate 1): 82.35% | Pf_120h_%Growth_Rep2 ([2]; P. falciparum 3D7, 120 h, parasite screen at 2 μg/mL, % growth, replicate 2): 134.53% | Tg_72h_%Growth_Rep1 ([3]; T. gondii, parasite screen at 2 μg/mL, % growth, replicate 1): 125.07% | Tg_72h_%Growth_Rep2 ([3]; T. gondii, parasite screen at 2 μg/mL, % growth, replicate 2): 89.41%

C=CC(C)(C)c1[nH]cnc1/C=C1/NC(=O)[C@@H]2C[C@@]3(C(C)(C)C=C)c4ccccc4N[C@H]3N2C1=O [Roquefortine E]
Pf_72h_%Growth_Rep1 [1, 10]: 11.66% | Pf_72h_%Growth_Rep2 [1, 11]: 6.85% | Pf_120h_%Growth_Rep1 [2, 12]: 14.59% | Pf_120h_%Growth_Rep2 [2, 13]: 17.38% | Tg_72h_%Growth_Rep1 [3, 14]: 75.06% | Tg_72h_%Growth_Rep2 [3, 15]: 97.61%

Reference: paper PMC12396409, “Screening and hit evaluation of a microbial metabolite library against the pathogenic Plasmodium falciparum and Toxoplasma gondii parasites” (International Journal for Parasitology: Drugs and Drug …, 2025)
